Read-outs that look alike come from different tables or passages of the source. Blank lines part the entries; values can stand above or below the molecule they belong to.
Columns and labels:
BaGST2 [1] = experiment: Substrate specificity (glutathione transferase and peroxidase assays); type: biochemical, Biomphalaria alexandrina
Excerpt: (§1) One unit of transferase activity is defined as the amount of enzyme which catalyzes the formation of 1 μmol of thioether per min, and the specific activity is expressed as μmol/min/mg protein.
(§2) Enzyme activity with various aromatic substrates, namely, bromosulfophthalein (BSP), 1, 2-dichloro-4-nitrobenzene (DCNB), p-nitrophenethyl-bromide, and ethacrynic acid (EA), was examined as described.
(§3) Substrate specificities of BaGST2 and BaGST3 toward several compounds were studied.

BaGST3 [2] = experiment: as above; type: biochemical, Biomphalaria alexandrina
Excerpt: as §1, §2, §3

BaGST2 [3] = experiment: Inhibition of GSH-CDNB-conjugating activity and type of inhibition; type: biochemical, Biomphalaria alexandrina; settings: for IC50: GSH-CDNB-conjugating activity, standard assay conditions; for Type of inhibition / Vmax in the presence of inhibitor: CDNB as substrate; for Type of inhibition: inhibitor at less than I20; for Vmax in the presence of inhibitor: inhibitor at less than I20, without inhibitor 75.5
Protocol: as §1
(§4) The IC50 values were determined according to Yalcin [18]. The IC50 values were determined by plotting percentage activity values versus log inhibitor concentrations.
(§5) The type of inhibition of BSP, hematin, and CB was also examined by studying the effect of constant concentration (less than IC20) of each inhibitor on the Km (CDNB) and Vmax of BaGST2 and BaGST3.

BaGST3 [4] = experiment: as above; type: biochemical, Biomphalaria alexandrina; settings: for IC50: GSH-CDNB-conjugating activity, standard assay conditions; for Type of inhibition / Vmax in the presence of inhibitor: CDNB as substrate; for Type of inhibition: inhibitor at less than I20; for Vmax in the presence of inhibitor: inhibitor at less than I20, without inhibitor 48.8
Protocol: as §1, §4, §5

BaGST2 [5] = experiment: Kinetic studies with varied GSH and CDNB concentrations; type: biochemical, Biomphalaria alexandrina; settings: 25 °C, substrate varied (CDNB 0.01-1.5 mM, GSH 0.025-1.5 mM)
Excerpt: as §1

BaGST3 [6] = experiment: as above; type: biochemical, Biomphalaria alexandrina
Excerpt: as §1

[7] = target: Biomphalaria alexandrina glutathione transferase BaGST3 (Biomphalaria alexandrina); experiment: SEC; Sephadex G-75 column (90 x 1.4 cm), 20 mM Tris-HCl pH 8.0, 100 mM NaCl, 4 °C; calibrated with standard proteins; apparent MW about 45 kDa compared with the subunit MW of 23.6 kDa by SDS-PAGE

Molecule: CC(C)(OO)c1ccccc1 [CuOOH, cumene hydroperoxide]
- Activity toward substrate (in words) (BaGST2 [1]; BaGST2): peroxidase activity
- Substrate specificity (specific activity) (BaGST2 [1]; BaGST2, means ± SD, n ≥ 4): 0.60 ± 0.02 µmol/min/mg
- Activity toward substrate (in words) (BaGST3 [2]; BaGST3): peroxidase activity
- Substrate specificity (specific activity) (BaGST3 [2]; BaGST3, means ± SD, n ≥ 4): 1.40 ± 0.03 µmol/min/mg

Molecule: CCCCSCC(NC(=O)CCC(N)C(=O)O)C(=O)NCC(=O)O (stereo not drawn) [S-butyl-GSH]
- IC50 (BaGST2 [3]): 69.1 µM
- IC50 (BaGST3 [4]): 51.2 µM

Molecule: O=[N+]([O-])c1ccc(CCBr)cc1 [p-Nitro-phenethylbromide, p-nitrophenethyl-bromide]
- Activity toward substrate (in words) (BaGST2 [1]; BaGST2): low activity
- Substrate specificity (specific activity) (BaGST2 [1]; BaGST2, means ± SD, n ≥ 4): 2.70 ± 0.13 µmol/min/mg
- Activity toward substrate (in words) (BaGST3 [2]; BaGST3): low activity
- Substrate specificity (specific activity) (BaGST3 [2]; BaGST3, means ± SD, n ≥ 4): 6.00 ± 0.20 µmol/min/mg

Molecule: O=[N+]([O-])c1ccc(Cl)c(Cl)c1 [DCNB, 1,2-dichloro-4-nitrobenzene]
- Activity toward substrate (in words) (BaGST2 [1]; BaGST2): low activity
- Substrate specificity (specific activity), DCNB × 10^3 (BaGST2 [1]; BaGST2, means ± SD, n ≥ 4): 30 ± 1.5 μmol/min/mg × 10^3
- Activity toward substrate (in words) (BaGST3 [2]; BaGST3): low activity
- Substrate specificity (specific activity), DCNB × 10^3 (BaGST3 [2]; BaGST3, means ± SD, n ≥ 4): 10 ± 0.6 μmol/min/mg × 10^3

Molecule: O=C1OC(c2ccc(O)c(S(=O)(=O)O)c2)(c2ccc(O)c(S(=O)(=O)O)c2)c2c(Br)c(Br)c(Br)c(Br)c21 [BSP, bromosulfophthalein]
- Type of inhibition (BaGST2 [3]): Competitive
- Vmax in the presence of inhibitor (BaGST2 [3]): 75.5 μmol/min/mg protein
- IC50 (BaGST2 [3]): 80.4 µM
- IC50 (BaGST3 [4]): 95 µM
- Activity toward substrate (in words) (BaGST2 [1]; BaGST2): did not show any detectable activity
- Activity toward substrate (in words) (BaGST3 [2]; BaGST3): did not show any detectable activity

Molecule: C=CC1=C(C)c2cc3[n-]c(cc4[n-]c(cc5nc(cc1n2)C(C)=C5C=C)c(C)c4CCC(=O)O)c(CCC(=O)O)c3C.O.[Fe+2] [Hematin, hematin]
- Type of inhibition (BaGST2 [3]): Mixed
- Vmax in the presence of inhibitor (BaGST2 [3]): 13.7 μmol/min/mg protein
- IC50 (BaGST2 [3]): 1.35 µM
- Type of inhibition (BaGST3 [4]): Noncompetitive
- Vmax in the presence of inhibitor (BaGST3 [4]): 15.8 μmol/min/mg protein
- IC50 (BaGST3 [4]): 0.46 µM

Molecule: O=[N+]([O-])c1ccc(Cl)c([N+](=O)[O-])c1 [CDNB, 1-chloro-2,4-dinitrobenzene]
- Km (BaGST2 [5]): 3330 µM
- Km (BaGST3 [6]; 25 °C, CDNB varied 0.01-1.5 mM, read-out: Km): 50 µM
- Specific activity toward CDNB (BaGST2 [1]; BaGST2 after GSH-Sepharose, 146-fold purification): 19.0 μmol/min/mg protein
- Specific activity toward CDNB (BaGST3 [2]; BaGST3 after GSH-Sepharose, 346-fold purification): 45.2 μmol/min/mg protein

- stoichiometry N [7]: 2
Molecule: Biomphalaria alexandrina glutathione transferase BaGST3 (enzyme)

- Activity toward substrate (in words) (BaGST2 [1]; BaGST2): high activity
- Substrate specificity (specific activity) (BaGST2 [1]; BaGST2, means ± SD, n ≥ 4): 3.80 ± 0.11 µmol/min/mg
- Activity toward substrate (in words) (BaGST3 [2]; BaGST3): high activity
- Substrate specificity (specific activity) (BaGST3 [2]; BaGST3, means ± SD, n ≥ 4): 2.60 ± 0.10 µmol/min/mg
Molecule: C=C(CC)C(=O)c1ccc(OCC(=O)O)c(Cl)c1Cl [EA, ethacrynic acid]

Molecule: N[C@@H](CCC(=O)N[C@@H](CSCc1ccc(Br)cc1)C(=O)NCC(=O)O)C(=O)O [S-P-bromobenzyl-GSH]
- IC50 (BaGST2 [3]): 9.3 µM
- IC50 (BaGST3 [4]): 34.9 µM

- IC50 (BaGST2 [3]): 36.3 µM
- IC50 (BaGST3 [4]): 19.5 µM
Molecule: CCCCCCSC[C@H](NC(=O)CC[C@H](N)C(=O)O)C(=O)NCC(=O)O [S–hexyl-GSH, S-hexyl-GSH]

- Km (BaGST2 [5]): 220 µM
- Km (BaGST3 [6]; read-out: Km (GSH), high GSH concentrations, non-Michaelian, GSH 0.5-5 mM): 610 µM
- Km (BaGST3 [6]; read-out: Km (GSH), low GSH concentrations, non-Michaelian, GSH 0.025-0.5 mM): 150 µM
Molecule: N[C@@H](CCC(=O)N[C@@H](CS)C(=O)NCC(=O)O)C(=O)O [GSH, γ-L-glutamyl-L-cysteinyl-glycine]

- IC50 (BaGST2 [3]): 2.35 µM
- IC50 (BaGST3 [4]): 0.58 µM
Molecule: Nc1c(S(=O)(=O)O)cc(Nc2ccc(Nc3nc(Cl)nc(Nc4ccccc4S(=O)(=O)O)n3)c(S(=O)(=O)O)c2)c2c1C(=O)c1ccccc1C2=O [CB, Cibacron Blue]
- Type of inhibition (BaGST2 [3]): Competitive
- Vmax in the presence of inhibitor (BaGST2 [3]): 75.5 μmol/min/mg protein
- Type of inhibition (BaGST3 [4]): Competitive
- Vmax in the presence of inhibitor (BaGST3 [4]): 48.8 μmol/min/mg protein

From article PMC9259769, “Biochemical characterization and peptide mass fingerprinting of two glutathione transferases from Biomphalaria alexandrina snails (Gastropoda: Planorbidae)” (Journal of Genetic Engineering & Biotechnology, 2022)
